The values that follow come from ChEMBL document CHEMBL1201862, “PubChem BioAssay data set” (2004).

For one series, the target named is Cytochrome P450 2D6 (Homo sapiens, UniProt P10635).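 Also: CYP2D6 member of a cytochrome P450 panel assay.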
A short description of series [1]: Luminescence Cell-Based Dose Retest to Confirm Inhibitors of Cancer Stem Cells. [Related pubchem assays (depositor defined):AID2717, AID2721]. It counts as functional. The conditions noted are these: Homo sapiens.
A short description of series [2]: cytotoxicity toward NIH3T3 fibroblasts, dose response, counter-screen, cell-based, ATP luminescence, mouse fibroblasts (AID 2010).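 Also: cells exposed to compound for about 90 hours before reading.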 The format is functional. (Counterscreens check selectivity or assay interference.)
The next series has as its system INS1. Nature of the series: beta cell apoptosis inhibitors, cytokine rescue, dose response, luminescence, retest (AID 449756).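 Also: cell death triggered by IL-1 beta plus TNF-alpha plus IFN-gamma mixture; protective hits raise ATP signal compared with cytokine alone wells.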 It counts as functional, cell-based. The conditions noted are these: Rattus norvegicus.
A short description of series [3]: inhibitors of intracellular T. cruzi replication, confirmation, NIH3T3 host cells, beta-gal luminescence (AID 2044).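 Also: intracellular parasites grown in NIH/3T3 mouse fibroblasts as host cells; luminescent beta-galactosidase reporter signal from transgenic T. cruzi replicating inside host cells; inhibitors lower the luminescence signal.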 The format is functional, cell-based.
Another series has as its target Cytochrome P450 2C19 (Homo sapiens, UniProt P33261). Nature of the series: Cytochrome panel assay with activity outcomes. Panel member name: p450-cyp2c19 Compounds with AC50 equal or less than 10 uM are considered active. The format is functional.
A further series has as its target Cytochrome P450 3A4 (Homo sapiens, UniProt P08684).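 Also: CYP3A4 tested as one member of a cytochrome P450 panel screen.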

Molecules are shown by their SMILES. Active and inactive are the calls of the source.

Cytochrome P450 3A4, sequence (P08684 whole entry): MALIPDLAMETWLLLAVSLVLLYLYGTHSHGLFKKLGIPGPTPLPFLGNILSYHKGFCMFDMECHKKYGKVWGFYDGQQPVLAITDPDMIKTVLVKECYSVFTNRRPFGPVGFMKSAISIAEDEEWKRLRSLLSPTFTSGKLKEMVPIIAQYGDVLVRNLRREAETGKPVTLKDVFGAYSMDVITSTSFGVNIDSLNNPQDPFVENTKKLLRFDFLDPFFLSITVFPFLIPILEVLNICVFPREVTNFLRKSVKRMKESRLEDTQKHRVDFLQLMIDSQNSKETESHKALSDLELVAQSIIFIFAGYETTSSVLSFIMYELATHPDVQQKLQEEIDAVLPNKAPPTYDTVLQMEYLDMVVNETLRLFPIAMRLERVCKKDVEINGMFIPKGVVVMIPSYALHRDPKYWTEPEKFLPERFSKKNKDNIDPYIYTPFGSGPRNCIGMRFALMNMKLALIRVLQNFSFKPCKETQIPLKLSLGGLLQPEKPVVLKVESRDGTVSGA
Cytochrome P450 2D6, sequence (P10635 whole entry): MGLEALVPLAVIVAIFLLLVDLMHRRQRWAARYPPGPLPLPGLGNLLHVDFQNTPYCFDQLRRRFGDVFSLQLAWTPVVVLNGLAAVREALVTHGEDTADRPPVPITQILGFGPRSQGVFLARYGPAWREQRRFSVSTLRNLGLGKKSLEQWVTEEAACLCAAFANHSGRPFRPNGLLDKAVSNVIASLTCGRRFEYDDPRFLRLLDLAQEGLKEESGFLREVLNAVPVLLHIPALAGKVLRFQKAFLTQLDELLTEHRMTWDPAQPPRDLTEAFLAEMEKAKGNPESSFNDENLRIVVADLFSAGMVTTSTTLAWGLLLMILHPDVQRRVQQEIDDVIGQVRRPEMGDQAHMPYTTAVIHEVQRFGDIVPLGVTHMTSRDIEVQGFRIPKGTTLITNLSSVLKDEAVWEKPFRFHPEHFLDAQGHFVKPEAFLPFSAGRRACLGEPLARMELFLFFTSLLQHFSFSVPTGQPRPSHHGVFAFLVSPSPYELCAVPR
Cytochrome P450 2C19, sequence (P33261 whole entry): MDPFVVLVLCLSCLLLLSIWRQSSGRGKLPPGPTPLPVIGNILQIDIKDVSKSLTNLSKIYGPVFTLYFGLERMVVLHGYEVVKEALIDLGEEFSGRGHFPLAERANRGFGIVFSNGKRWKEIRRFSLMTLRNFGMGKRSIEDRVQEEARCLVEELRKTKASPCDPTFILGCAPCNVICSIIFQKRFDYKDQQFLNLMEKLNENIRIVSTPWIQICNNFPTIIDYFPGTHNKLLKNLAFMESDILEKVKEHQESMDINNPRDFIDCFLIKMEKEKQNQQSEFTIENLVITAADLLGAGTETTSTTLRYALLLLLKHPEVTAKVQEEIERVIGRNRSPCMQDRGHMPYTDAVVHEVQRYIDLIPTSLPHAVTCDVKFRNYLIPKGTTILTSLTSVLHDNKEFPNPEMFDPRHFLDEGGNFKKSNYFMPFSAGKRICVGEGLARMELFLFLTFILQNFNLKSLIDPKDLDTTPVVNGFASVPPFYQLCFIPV

One may read the AC50 as the concentration giving half of the maximal activity seen. As to `O=C1CCCC2=C1C(c1ccc(OS(=O)(=O)c3ccc(Cl)cc3)cc1)C1=C(CCCC1=O)O2`, at Cytochrome P450 2D6, the AC50 is 12.6 µM (inconclusive).

On to `c1ccc(-c2cccc(N3CCC4(CCNCC4)CC3)c2)cc1`, for which, at Cytochrome P450 2D6, the AC50 was 39.8 µM (inconclusive).

Consider `NC(=O)CC(NC(=O)c1ccc(Br)cc1)c1ccc(N2CCCCCCC2)c([N+](=O)[O-])c1` (stereo not given), for which the AC50 in series [1] is 8.2 µM (active).

As a reminder, the EC50 is the concentration that produces a half-maximal response. As to `Cc1ccc(NC(=O)NCC2CCN(Cc3cccc(Cl)c3)CC2)cc1Cl`, the figures for the EC50 in series [2] and in series [3] were > 60 µM (not active) and 1.03 µM (active), respectively. Moreover, the AC50 in the series on INS1 was 12.8 µM (active); in series [1] it was 8.54 µM (active).

As for `CCCCCCOc1ccc(OC(=O)c2cccnc2)cc1`, the AC50 in series [1] was 3.33 µM (active).

Consider `COc1ccc(CN2CCN(C(=O)C3CCC(CNS(=O)(=O)c4ccc(C)cc4)CC3)CC2)c(OC)c1OC` (stereo not given), for which the EC50 in series [2] was > 60 µM (not active); in series [3], 0.404 µM (active).

Take `COc1ccc(C(=O)c2c(C)c3ccccc3n2CC(O)CNC(C)C)cc1` (stereo not given): the AC50 with INS1 is 30.1 µM (active).

For `CN(C)c1ccc(-c2nccc(NCCN3CCOCC3)n2)cc1`, the half-maximal activity concentration (AC50) at Cytochrome P450 2D6 is 39.8 µM (inconclusive); on Cytochrome P450 2C19 (read-out: AC50) it was 15.8 µM (inconclusive); on Cytochrome P450 3A4, 25.1 µM (inconclusive).

`Oc1ccccc1CNCc1ccccc1O`: on Cytochrome P450 2D6, the AC50 is 3.16 µM (inconclusive).

On to `O=c1c2ccccc2[nH]c(=S)n1CCCN1CCC(Cc2ccccc2)CC1`, for which the EC50 in series [2] is > 60 µM (not active); in series [3], 0.161 µM (active).

Regarding `COc1ccc(S(=O)(=O)N2CCC(N3CCCCC3)CC2)cc1`, at Cytochrome P450 2C19 (read-out: AC50), the AC50 was 39.8 µM (inconclusive).

As to `CN(C)CCCn1c2c(c(SCC(=O)Nc3cccc4ccccc34)nc1=O)CCC2`, the concentration for a half-maximal effect (EC50) in series [2] is > 60 µM (not active); in series [3] it was 2.04 µM (active).

Consider `CC[C@H]1CN2CCc3cc(OC)c(OC)cc3[C@H]2C[C@@H]1C[C@H]1NCCc2c1[nH]c1ccc(O)cc21`, for which the AC50 on Cytochrome P450 2D6 was 3.98 µM (inconclusive).

In the case of `CCC1CCCCN1Cc1cc(OC)c(O)c([N+](=O)[O-])c1` (stereo not given), the AC50 on Cytochrome P450 2D6 is 14.1 µM (inconclusive).

As for `c1ccc(Nc2cccc3c(Nc4ccccc4)cccc23)cc1`, the EC50 in series [2] is > 60 µM (not active); in series [3], 1.14 µM (active).

As for `CCCCCc1nc2c(C#N)c(-c3ccc(Cl)cc3)ccn2n1`, the AC50 on Cytochrome P450 3A4 is 25.1 µM (inconclusive).

As for `O=C(Nc1ncc(S(=O)(=O)c2ccc([N+](=O)[O-])cc2)s1)c1ccc2ccccc2c1`, the EC50 in series [2] was > 60 µM (not active); in series [3], 0.128 µM (active). For the same compound, the AC50 in series [1] was 2.11 µM (active).

Take `COCCN1CN=C(Nc2nc3ccccc3s2)NC1`: at Cytochrome P450 2D6, the AC50 was 11.2 µM (inconclusive).

On to `Cn1nnnc1SCCNCc1cccc2ccccc12`, for which the EC50 in series [2] and in series [3] was > 60 µM (not active) in each case.

Regarding `CN(C(=O)COc1cccc(Br)c1)C1CCS(=O)(=O)C1` (stereo not given), the AC50 at Cytochrome P450 2C19 (read-out: AC50) was 22.4 µM (inconclusive).

In the case of `COc1cc(C)ccc1OCCOc1cc(C)ccc1Cl`, at Cytochrome P450 2C19 (read-out: AC50), the AC50 was 5.62 µM (inconclusive).

For the compound `CNC(=S)N(Cc1cccs1)Cc1cc2cc(OC)c(OC)cc2nc1O`, the AC50 with INS1 is 99.3 µM (active).

For `COCCCn1c(=N)c(C(N)=S)cc2c(=O)n3cccc(C)c3nc21`, the EC50 in series [2] is > 60 µM (not active); in series [3], 1.34 µM (active).

With `NC1=NC(Nc2ccc(F)cc2F)=NC2(CCCCC2)N1`, the half-maximal activity concentration (AC50) at Cytochrome P450 2C19 (read-out: AC50) was 3.16 µM (inconclusive).

For `CC(=O)NCCNc1nc(-c2ccc3c(c2)OCO3)nc2ccccc12`, on Cytochrome P450 2C19 (read-out: AC50), the AC50 was 39.8 µM (inconclusive).

In the case of `Cc1ccc(OCC(O)Cn2c3ccccc3c3ccccc32)cc1` (stereo not given), the AC50 in series [1] was 4.84 µM (active).

Regarding `Cn1c([N+](=O)[O-])cnc1CN1CCN(CCO)CC1`, the AC50 entry on Cytochrome P450 2C19 was “inconclusive”.

Turning to `O=C(CCCCN1CCCCC1)c1ccc2c(c1)Cc1ccccc1-2`, the EC50 in series [2] is 13.6 µM (active); in series [3], 1.9 µM (active).

`O=C(COc1ccc(Br)cc1Cl)NC1CCN(Cc2ccccc2)CC1`: the EC50 in series [2] was > 60 µM (not active); in series [3] it was 0.165 µM (active).

`CN(C)C(=O)c1ccc(-c2ccc3ncnc(Nc4ccc(F)cc4)c3c2)cc1`: the AC50 on Cytochrome P450 2C19 (read-out: AC50) was 25.1 µM (inconclusive).

Take `O=C(CN1CCN(c2ccc(O)cc2)CC1)Nc1ccc(SC(F)F)cc1`: the AC50 in series [1] was 6.49 µM (active).

Take `O=S(=O)(c1cccc(-c2nnc(-c3ccc(Br)cc3)o2)c1)N1CCCCCC1`: the AC50 on Cytochrome P450 2C19 (read-out: AC50) is 11.2 µM (inconclusive).

For `O=C(NC1(Cc2ccccc2)CCN(CCCc2ccccc2)C1=O)c1ccccc1` (stereo not given), the AC50 in the series on INS1 is 2.75 µM (active).

Take `COCC(=O)N1CCC2(CCCN(c3cccc(-c4ccccc4)c3)C2)CC1`: the AC50 is 39.8 µM (inconclusive) on Cytochrome P450 2D6 and 12.6 µM (inconclusive) on Cytochrome P450 3A4.

For the compound `CCNS(=O)(=O)c1ccc(NC(=O)c2cc(C(F)(F)F)nn2C)cc1`, the concentration at half-maximal activity (AC50) on Cytochrome P450 3A4 is 6.31 µM (inconclusive).

Consider `CCC(=O)Nc1nc(C)c(-c2csc(Nc3cccc(O)c3)n2)s1`, for which the AC50 in series [1] was 0.188 µM (active).

Turning to `COc1cc(Br)c(/C=C/c2ccc3cccc(O)c3n2)cc1OC`, the values for the half-maximal effective concentration (EC50) in series [2] and in series [3] were > 60 µM (not active) and 0.831 µM (active), respectively.

Take `CN(CC(=O)Nc1ccc(S(=O)(=O)N2CCCC2)cc1)Cc1ccc(Cl)cc1`: the EC50 in series [2] is > 60 µM (not active); in series [3], 1.58 µM (active).

For `Cc1nc2cnc(N3CCNCC3)nc2n(Cc2cccs2)c1=O`, the AC50 on Cytochrome P450 2D6 was 12.6 µM (inconclusive).

For the compound `COc1ncc2nc(-c3ccccc3)c(=O)n(C[C@H]3CCCO3)c2n1`, on Cytochrome P450 3A4, the AC50 was 25.1 µM (inconclusive).

Take `O=C(NC(=S)NCc1cccnc1)c1cccc2ccccc12`: the EC50 in series [2] was > 60 µM (not active); in series [3], 0.505 µM (active).

As for `CN(C)c1ccc(/C=C(\C#N)C(=O)OCC(=O)N(C)C2CCS(=O)(=O)C2)cc1` (stereo not given), the AC50 in the series with INS1 is > 260 µM (inactive).

On to `Nc1ccc(N2CCN(Cc3ccccc3Cl)CC2)c(Cl)c1`, for which the AC50 in series [1] was 2.45 µM (active).

Turning to `Clc1ccc(Cl)c(OCCCCN2CCNCC2)c1`, the EC50 in series [2] is 9.24 µM (active); in series [3] it was 3.42 µM (active). Also, the AC50 in series [1] was 2.41 µM (active).

Regarding `COc1cccc(C(=O)N(C)c2nnc(-c3ccncc3)s2)c1`, on Cytochrome P450 3A4, the AC50 was 6.31 µM (inconclusive).

As for `CSc1nc2ccccc2cc1/C=C(\C#N)c1ccc(Cl)cc1Cl`, at Cytochrome P450 2D6, the AC50 was 1.58 µM (inconclusive).

As for `O=C(NCCCN1CCCC1=O)c1ccc([N+](=O)[O-])s1`, the values for the 50% effective concentration (EC50) in series [2] and in series [3] were > 30 µM (not active) and 0.534 µM (active), respectively.

On to `O=C(OCc1nc2ccccc2s1)c1ccc(Br)s1`, for which the AC50 at Cytochrome P450 3A4 was 25.1 µM (inconclusive).

For the compound `COc1cccc(NC(=O)Nc2ccc(C)c(Cl)c2)c1`, the 50% effective concentration (EC50) is > 30 µM (not active) in series [2] and 2.41 µM (active) in series [3].

`CCC(CO)Oc1cc(NCc2ccc(C)c(C)c2)c2ncn(C(C)C)c2c1` (stereo not given): in the series on INS1, the AC50 is 5.86 µM (active).

For the compound `CCC(CO)Oc1cc(NCc2ccc(Cl)cc2Cl)c2ncn(C(C)C)c2c1` (stereo not given), the AC50 in series [1] was 8.14 µM (active).

`CCc1ccc(-c2csc(NC(=O)C3CCCO3)c2C(=O)OC(C)C)cc1` (stereo not given): on Cytochrome P450 3A4, the AC50 was 28.2 µM (inconclusive).

For the compound `CC(=O)c1ccc(NC(=O)C(Cc2ccccc2)NC(=O)c2ccco2)cc1` (stereo not given), the concentration at half-maximal activity (AC50) on Cytochrome P450 3A4 was 28.2 µM (inconclusive).

With `C=C[C@]1(C)C[C@H](OC(=O)CO)[C@]2(C)C3C(=O)CC[C@]3(CC[C@H]2C)[C@H](C)[C@H]1O` (stereo not given in full), the concentration at half-maximal activity (AC50) on Cytochrome P450 3A4 is 3.16 µM (inconclusive).

`Cc1[nH]n(C(C)(C)C)c(=O)c1Sc1ccc(Cl)cc1`: the figures for the EC50 in series [2] and in series [3] were > 60 µM (not active) and 16.3 µM (active), respectively.

Consider `O=C(Cn1cnc([N+](=O)[O-])n1)N/N=C/c1ccc2ccccc2c1`, for which the EC50 is > 60 µM (not active) in series [2] and 0.333 µM (active) in series [3].

Turning to `C=CCc1cccc(/C=N/NC(=O)c2ccccc2OC)c1O`, the results for the half-maximal effective concentration (EC50) in series [2] and in series [3] were > 60 µM (not active) and 2.2 µM (active), respectively. The AC50 with INS1 was 3.06 µM (active).

With `C/C(Cn1cnc([N+](=O)[O-])n1)=N/NC(=O)COc1ccccc1Cl`, the EC50 in series [2] is > 60 µM (not active); in series [3], 0.154 µM (active).

In the case of `Cc1ccc(/C=N/NC(=O)CNC(=O)COc2ccccc2)o1`, the AC50 in series [1] is > 195 µM (inactive).

Regarding `CC(=O)c1ccc(OCc2cc(C(=O)N3CCCCC3c3cccnc3)no2)cc1` (stereo not given), in the series with INS1, the AC50 was 14.3 µM (active).

For `COc1ccccc1N1CCNCC1`, the AC50 result on Cytochrome P450 2C19 is “inconclusive”.

As for `O=C(O)Cc1c[nH]cn1` [IMIDAZOLE ACETIC ACID], the concentration at half-maximal activity (AC50) on Cytochrome P450 3A4 is 31.6 µM (inconclusive).
